Drawing on US20190119282A1, “IMIDAZOPYRIDAZINES USEFUL AS INHIBITORS OF THE PAR-2 SIGNALING PATHWAY” (Vertex Pharmaceuticals Incorporated, priority 2013, published 2019), this text covers IC50 for 25 compounds.

One may read the pIC50 as the IC50 on a negative log10 scale, so that one unit is a factor of ten.

Assay [1] deals with T1, PAR2 (HT-29 cells, SLIGKV activation) (Homo sapiens, UniProt P55085).
T1 construct: host or cells: HT-29 cells
T1 sequence (P55085 26-397): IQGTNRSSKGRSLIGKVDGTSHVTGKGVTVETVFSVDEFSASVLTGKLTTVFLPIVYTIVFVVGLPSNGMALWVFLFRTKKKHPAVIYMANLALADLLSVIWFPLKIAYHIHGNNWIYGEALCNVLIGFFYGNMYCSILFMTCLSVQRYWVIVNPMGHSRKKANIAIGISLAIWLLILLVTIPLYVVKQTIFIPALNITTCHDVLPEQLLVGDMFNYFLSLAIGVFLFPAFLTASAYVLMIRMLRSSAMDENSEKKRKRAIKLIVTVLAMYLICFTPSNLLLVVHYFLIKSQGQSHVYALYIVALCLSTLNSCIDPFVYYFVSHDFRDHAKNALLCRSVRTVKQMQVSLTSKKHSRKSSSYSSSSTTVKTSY
Kind of assay: Ca FLIPR TETRA assay, ANTAGONIST mode, stimulation with 8 μM SLIGKV. It is filed as cell-based. To be noted: HT-29 cells, antagonist mode, stimulation with 8 μM SLIGKV. A digest of the protocol: (§1)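 HT-29 cells grown overnight in 1% FBS McCoy's medium were loaded with calcium 5 dye (45 min 37 °C, 15 min r.t.). Compounds were added and Ca2+ read for direct activation, then after 30 min at r.t. cells were stimulated with 8 μM SLIGKV, 1 U/mL thrombin, 3.1 U/mL trypsin or 0.6 μM UTP (final).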

In assay [2] the test system is UTP-stimulated Ca2+ response in HT-29 cells. Kind of assay: Ca FLIPR TETRA assay, ANTAGONIST mode, stimulation with 0.6 μM UTP. The assay is classed as cell-based, human. The note with it: HT-29 cells, antagonist mode, stimulation with 0.6 μM UTP. A digest of the protocol: as §1
Assay [3] has as its target T2, PAR2 (HT-29 cells, trypsin activation) (Homo sapiens, UniProt P55085).
T2 construct: host or cells: HT-29 cells
T2 sequence (P55085 26-397): T1 sequence (P55085 26-397)
Kind of assay: Ca FLIPR TETRA assay, ANTAGONIST mode, stimulation with 3.1 U/mL trypsin. The assay is classed as cell-based. To be noted: HT-29 cells, antagonist mode, stimulation with 3.1 U/mL trypsin. A digest of the protocol: as §1

Assay [4] concerns Thrombin-stimulated Ca2+ response in HT-29 cells. Kind of assay: Ca FLIPR TETRA assay, ANTAGONIST mode, stimulation with 1 U/mL Thrombin. The assay is classed as cell-based, human. The note with it: HT-29 cells, antagonist mode, stimulation with 1 U/mL Thrombin. The essentials: as §1

The structures appear in SMILES notation. pIC50: −log10 of the molar value.

As to `CC(C)(C)c1cc(-c2ccc(Br)cc2)nn2cc(C(=O)N3CCNC(=O)C3(C)C)nc12` [Compound I-517], the pIC50 was 8.57 in assay [1], < 6.00 in assay [2] (Homo sapiens), 8.68 in assay [3] and < 6.00 in assay [4] (Homo sapiens).

As for `CC(C)(C)c1cc(-c2ccc(F)cc2)nn2cc(C(=O)N3CCN(CC(=O)O)C(=O)C3(C)C)nc12` [Compound I-518], the pIC50 in assay [1] was 7.24; in assay [2] (Homo sapiens) it was < 6.00; in assay [3], 7.16; in assay [4] (Homo sapiens), < 6.00.

On to `Cc1n[nH]c(C(=O)N2CCN(C(=O)c3cn4nc(-c5ccc(Br)cc5)cc(C(C)(C)C)c4n3)C(C)(C)C2)n1` [Compound I-519], for which the pIC50 in assay [1] was 9.40; in assay [2] (Homo sapiens), < 6.00; in assay [3] it was 9.40; in assay [4] (Homo sapiens) it was < 6.00.

As to `COC(=O)[C@H]1CC[C@@H](C(=O)N2CCN(C(=O)c3cn4nc(-c5ccc(Br)cc5)cc(C(C)(C)C)c4n3)C(C)(C)C2)CC1` [Compound I-520], the pIC50 was 9.00 in assay [1], < 6.00 in assay [2] (Homo sapiens), 9.00 in assay [3] and < 6.00 in assay [4] (Homo sapiens).

For the compound `CC(C)c1cc(-c2ccc(Cl)cc2)nn2cc(C(=O)N3CCNCC3(C)C)nc12` [Compound I-521], the pIC50 in assay [1] was 6.20; in assay [2] (Homo sapiens), < 6.00; in assay [3], 6.32; in assay [4] (Homo sapiens) it was < 6.00.

In the case of `CC1(C)C(=O)NCCN1C(=O)c1cn2nc(-c3ccc(F)cc3)cc(-c3ccc(F)cc3)c2n1` [Compound I-523], the pIC50 was 7.92 in assay [1], < 6.00 in assay [2] (Homo sapiens), 8.02 in assay [3] and < 6.00 in assay [4] (Homo sapiens).

For `CC1(C)CN(C(=O)[C@H]2CC[C@@H](C(=O)O)CC2)CCN1C(=O)c1cn2nc(-c3ccc(F)cc3)cc(-c3ccc(F)cc3)c2n1` [Compound I-524], the pIC50 in assay [1] is 8.85; in assay [2] (Homo sapiens), < 6.00; in assay [3], 8.77; in assay [4] (Homo sapiens), < 6.00.

As to `COC(=O)C1(C)CCC(C(=O)N2CCN(C(=O)c3cn4nc(-c5ccc(F)cc5)cc(C(C)(C)C)c4n3)C(C)(C)C2)CC1` (stereo not shown) [Compound I-526], the pIC50 in assay [1] was 9.22; in assay [2] (Homo sapiens), < 6.00; in assay [3] it was 9.10; in assay [4] (Homo sapiens), < 6.00.

On to `COC(=O)C1(C(=O)N2CCN(C(=O)c3cn4nc(-c5ccc(F)cc5)cc(C(C)(C)C)c4n3)C(C)(C)C2)CC1` [Compound I-527], for which the pIC50 in assay [1] is 8.37; in assay [2] (Homo sapiens), < 6.00; in assay [3] it was 8.52; in assay [4] (Homo sapiens) it was < 6.00.

For `COC(=O)C(C)(C)CC(=O)N1CCN(C(=O)c2cn3nc(-c4ccc(F)cc4)cc(C(C)(C)C)c3n2)C(C)(C)C1` [Compound I-528], the pIC50 in assay [1] was 8.74; in assay [2] (Homo sapiens) it was < 6.00; in assay [3], 8.38; in assay [4] (Homo sapiens) it was < 6.00.

As to `COC(=O)CCC(=O)N1CCN(C(=O)c2cn3nc(-c4ccc(F)cc4)cc(C(C)(C)C)c3n2)C(C)(C)C1` [Compound I-529], the pIC50 was 8.66 in assay [1], < 6.00 in assay [2] (Homo sapiens), 8.43 in assay [3] and < 6.00 in assay [4] (Homo sapiens).

For the compound `COC(=O)C12CC(C(=O)N3CCN(C(=O)c4cn5nc(-c6ccc(F)cc6)cc(C(C)(C)C)c5n4)C(C)(C)C3)(C1)C2` [Compound I-530], the pIC50 was 8.89 in assay [1], 6.30 in assay [2] (Homo sapiens), 8.66 in assay [3] and 6.39 in assay [4] (Homo sapiens).

With `CCOC(=O)/C=C/C(=O)N1CCN(C(=O)c2cn3nc(-c4ccc(F)cc4)cc(C(C)(C)C)c3n2)C(C)(C)C1` [Compound I-531], the pIC50 in assay [1] was 8.92; in assay [2] (Homo sapiens), < 6.00; in assay [3], 8.70; in assay [4] (Homo sapiens), < 6.00.

With `COC(=O)C1(C)CCC(C(=O)N2CCN(C(=O)c3cn4nc(-c5ccc(Cl)cc5)cc(C(C)(C)C)c4n3)C(C)(C)C2)CC1` (stereo not shown) [Compound I-532], the pIC50 was 9.10 in assay [1], < 6.00 in assay [2] (Homo sapiens), 8.96 in assay [3] and < 6.00 in assay [4] (Homo sapiens).

In the case of `CC(C)(C)c1cc(C2CCC(F)(F)CC2)nn2cc(C(=O)N3CCN(C(=O)[C@H]4CC[C@@H](C(=O)O)CC4)CC3(C)C)nc12` [Compound I-533], the pIC50 in assay [1] is 8.33; in assay [2] (Homo sapiens) it was < 6.00; in assay [3], 8.10; in assay [4] (Homo sapiens) it was < 6.00.

As to `CC1(C(=O)O)CCC(C(=O)N2CCN(C(=O)c3cn4nc(-c5ccc(Cl)cc5)cc(C(C)(C)C)c4n3)C(C)(C)C2)CC1` (stereo not shown) [Compound I-534], the pIC50 in assay [1] is 10.10; in assay [2] (Homo sapiens), < 6.00; in assay [3], 10.00; in assay [4] (Homo sapiens) it was < 6.00.

As to `CC(C)(C)c1cc(-c2ccc(N=[N+]=[N-])cc2)nn2cc(C(=O)N3CCNC(=O)C3(C)C)nc12` [Compound I-536], the pIC50 in assay [1] was 6.77; in assay [2] (Homo sapiens), < 6.00; in assay [3] it was 6.63; in assay [4] (Homo sapiens) it was < 6.00.

Regarding `COC(=O)C1CC(C(=O)N2CCN(C(=O)c3cn4nc(-c5ccc(F)cc5)cc(C(C)(C)C)c4n3)C(C)(C)C2)C1` (stereo not shown) [Compound I-537], the pIC50 in assay [1] was 9.10; in assay [2] (Homo sapiens) it was < 6.00; in assay [3], 8.92; in assay [4] (Homo sapiens), < 6.00.

For the compound `COC(=O)[C@H]1CC[C@@H](C(=O)N2CCN(C(=O)c3cn4nc(-c5ccc(Cl)cc5)cc(C(C)C)c4n3)C(C)(C)C2)CC1` [Compound I-539], the pIC50 in assay [1] was 9.10; in assay [2] (Homo sapiens), < 6.00; in assay [3], 8.89; in assay [4] (Homo sapiens), < 6.00.

`CC(C)c1cc(-c2ccc(Cl)cc2)nn2cc(C(=O)N3CCN(C(=O)[C@H]4C[C@H](O)C4)CC3(C)C)nc12` [Compound I-540]: the pIC50 in assay [1] is 8.38; in assay [2] (Homo sapiens), < 6.00; in assay [3] it was 8.09; in assay [4] (Homo sapiens), < 6.00.

Consider `CC(C)c1cc(-c2ccc(Cl)cc2)nn2cc(C(=O)N3CCN(C(=O)[C@H]4C[C@@](C)(O)C4)CC3(C)C)nc12` [Compound I-541], for which the pIC50 in assay [1] was 9.00; in assay [2] (Homo sapiens) it was < 6.00; in assay [3] it was 8.82; in assay [4] (Homo sapiens) it was < 6.00.

As for `CC(C)c1cc(-c2ccc(Cl)cc2)nn2cc(C(=O)N3CCN(C(=O)[C@H]4C[C@](O)(C(F)(F)F)C4)CC3(C)C)nc12` [Compound I-542], the pIC50 in assay [1] was 9.70; in assay [2] (Homo sapiens), < 6.00; in assay [3], 9.52; in assay [4] (Homo sapiens) it was < 6.00.

As to `CC(C)c1cc(-c2ccc(Cl)cc2)nn2cc(C(=O)N3CCN(C(=O)[C@H]4C[C@@H](O)C4)CC3(C)C)nc12` [Compound I-543], the pIC50 was 8.49 in assay [1], < 6.00 in assay [2] (Homo sapiens), 8.32 in assay [3] and < 6.00 in assay [4] (Homo sapiens).

Consider `COC(=O)C1CC(C(=O)N2CCN(C(=O)c3cn4nc(-c5ccc(Cl)cc5)cc(C(C)C)c4n3)C(C)(C)C2)C1` (stereo not shown) [Compound I-544], for which the pIC50 in assay [1] is 8.82; in assay [2] (Homo sapiens), < 6.00; in assay [3] it was 8.74; in assay [4] (Homo sapiens), < 6.00.

For the compound `COC(=O)C1CC(C(=O)N2CCN(C(=O)c3cn4nc(-c5ccc(Cl)cc5)cc(C(C)C)c4n3)C(C)(C)C2)C1` (stereo not shown) [Compound I-545], the pIC50 was 8.96 in assay [1], < 6.00 in assay [2], 8.72 in assay [3] and < 6.00 in assay [4].
